{"source": "patent US11691898B2", "about": "“Water treatment” (ITALMATCH CHEMICALS GB LIMITED, priority 2016, dated 2023)", "key": {"[1]": {"test_system": "Desulfovibrio vulgaris", "assay": "Log10 reduction in viable count of anaerobic bacteria in a high-TDS aqueous suspension", "type": "cell-based", "conditions": "for Log10 Reduction Anaerobes*: pH 8.0, TDS 30,000 mg l^-1, versus control, 5 = complete kill, ppm active as per example; for effectiveness against anaerobes (in words): alone", "method": "(§1) Aqueous systems inoculated with anaerobe and facultative anaerobe culture and having a total dissolved solids (TDS) concentration of 30,000 mg l^−1 were prepared and treated with treatment agents comprising: (a) tri n-butyl n-tetradecyl phosphonium chloride (TTPC) and (b) NaClO2.\n(§2) A suspension of Desulfovibrio vulgaris plus Enterobacter aerogenes bacteria containing from 1×10^5 to 1×10^6 cells/mL was prepared in sterile pH 8 phosphate buffer containing sodium chloride to give the desired total dissolved solids (TDS) concentration. Aliquots of this suspension were dosed with the indicated concentrations of the compounds (a) and (b) with the concentrations being measured as ppm active. The mixtures were allowed to stand at room temperature. At the designated contact times, each mixture was sampled to determine the total number of viable cells of both Desulfovibrio vulgaris and Enterobacter aerogenes by serial 10-fold dilution into API RP 38 media vials and anaerobic acid producing media vials, respectively. The vials were incubated at 37° C. for 72 hours. Results were recorded as log10 reduction in the viable count versus the control.\n(§3) The efficacy of the treatment agents was evaluated by measuring the Log10 Reduction of the anaerobic bacterium Desulfovibrio vulgaris and the facultative anaerobic bacterium Enterobacter aerogenes after contact times of 1 hour, 4 hours and 24 hours as detailed in Table 1. For TTPC the stated ppm value relates to the amount of TTPC added (active). For NaClO2 the stated ppm relates to the amount of NaClO2 added (active)."}, "[2]": {"test_system": "Enterobacter aerogenes", "assay": "Log10 reduction in viable count of facultative anaerobic bacteria in a high-TDS aqueous suspension", "type": "cell-based", "conditions": "pH 8.0, TDS 30,000 mg l^-1, versus control, 6 = complete kill, ppm active as per example", "method": "as §1, §2, §3"}}}
{"smiles": "CCCCCCCCCCCCCC[P+](CCCC)(CCCC)CCCC.[Cl-]", "note": "[1(comparative), tri n-butyl n-tetradecyl phosphonium chloride]", "values": [{"measurement": "Log10 Reduction Anaerobes*", "setting": "[1]; contact time 1 hour", "result": 2}, {"measurement": "Log10 Reduction Facultative Anaerobes**", "setting": "[2]; contact time 1 hour", "result": 0}]}
{"smiles": "CCCCCCCCCCCCCC[P+](CCCC)(CCCC)CCCC.[Cl-]", "note": "[2(comparative), tri n-butyl n-tetradecyl phosphonium chloride]", "values": [{"measurement": "Log10 Reduction Anaerobes*", "setting": "[1]; contact time 1 hour", "result": 5}, {"measurement": "Log10 Reduction Facultative Anaerobes**", "setting": "[2]; contact time 1 hour", "result": 3}]}
{"smiles": "[Na+].[O-][Cl+][O-]", "note": "[4(comparative), NaClO2]", "values": [{"measurement": "Log10 Reduction Anaerobes*", "setting": "[1]; contact time 1 hour", "result": 0}, {"measurement": "Log10 Reduction Facultative Anaerobes**", "setting": "[2]; contact time 1 hour", "result": 0}]}
{"smiles": "CCCCCCCCCCCCCC[P+](CCCC)(CCCC)CCCC.[Cl-]", "note": "[9(comparative), tri n-butyl n-tetradecyl phosphonium chloride]", "values": [{"measurement": "Log10 Reduction Anaerobes*", "setting": "[1]; contact time 4 hours", "result": 5}, {"measurement": "Log10 Reduction Facultative Anaerobes**", "setting": "[2]; contact time 4 hours", "result": 3}]}
{"smiles": "CCCCCCCCCCCCCC[P+](CCCC)(CCCC)CCCC.[Cl-]", "note": "[10(comparative), tri n-butyl n-tetradecyl phosphonium chloride]", "values": [{"measurement": "Log10 Reduction Anaerobes*", "setting": "[1]; contact time 4 hours", "result": 5}, {"measurement": "Log10 Reduction Facultative Anaerobes**", "setting": "[2]; contact time 4 hours", "result": 4}]}
{"smiles": "[Na+].[O-][Cl+][O-]", "note": "[11(comparative), NaClO2]", "values": [{"measurement": "Log10 Reduction Anaerobes*", "setting": "[1]; contact time 4 hours", "result": 0}, {"measurement": "Log10 Reduction Facultative Anaerobes**", "setting": "[2]; contact time 4 hours", "result": 0}]}
{"smiles": "[Na+].[O-][Cl+][O-]", "note": "[12(comparative), NaClO2]", "values": [{"measurement": "Log10 Reduction Anaerobes*", "setting": "[1]; contact time 4 hours", "result": 1}, {"measurement": "Log10 Reduction Facultative Anaerobes**", "setting": "[2]; contact time 4 hours", "result": 0}]}
{"smiles": "CCCCCCCCCCCCCC[P+](CCCC)(CCCC)CCCC.[Cl-]", "note": "[17(comparative), tri n-butyl n-tetradecyl phosphonium chloride]", "values": [{"measurement": "Log10 Reduction Anaerobes*", "setting": "[1]; contact time 24 hours", "result": 5}, {"measurement": "Log10 Reduction Facultative Anaerobes**", "setting": "[2]; contact time 24 hours", "result": 5}]}
{"smiles": "CCCCCCCCCCCCCC[P+](CCCC)(CCCC)CCCC.[Cl-]", "note": "[18(comparative), tri n-butyl n-tetradecyl phosphonium chloride]", "values": [{"measurement": "Log10 Reduction Anaerobes*", "setting": "[1]; contact time 24 hours", "result": 5}, {"measurement": "Log10 Reduction Facultative Anaerobes**", "setting": "[2]; contact time 24 hours", "result": 6}]}
{"smiles": "[Na+].[O-][Cl+][O-]", "note": "[19(comparative), NaClO2]", "values": [{"measurement": "Log10 Reduction Anaerobes*", "setting": "[1]; contact time 24 hours", "result": 4}, {"measurement": "Log10 Reduction Facultative Anaerobes**", "setting": "[2]; contact time 24 hours", "result": 0}]}
{"smiles": "[Na+].[O-][Cl+][O-]", "note": "[NaClO2]", "values": [{"measurement": "effectiveness against anaerobes (in words)", "setting": "[1]; longer contact times", "result": "limited effectiveness"}, {"measurement": "effectiveness against anaerobes (in words)", "setting": "[1]; short contact times", "result": "ineffective"}]}
